Laboratory results as given in ChEMBL document CHEMBL3885861, “Open TG-GATES”.

Species on record: Rattus norvegicus
Test: Open TG-GATES - Regimen: Daily Repeat
Type: toxicity, organism-based, Sprague-Dawley
Set-up: regimen Daily Repeat, gender Male, age 6 weeks
Details: in vivo, po, route gavage; for APTT / Bas / Eos / Fbg / Hb / Ht / Lym / MCHC / MCV / Mono / Neu / PT / Plat / RBC / Ret / WBC: tissue Blood; for KIDNEY_L / KIDNEY_R / KIDNEY_TOTAL: tissue Kidney; for LIVER: tissue Liver; for ALP / ALT / AST / CRE / DBIL / GLC / IP / K / LDH / Na / PL / RALB / TBIL / TC / TG / TP / gamma-GTP: tissue Plasma
[1] = 300 mg/kg, 72 h, dose level Middle, time 3 day
[2] = 300 mg/kg, […], dose level Middle, time 7 day
[3] = 300 mg/kg, […], dose level Middle, time 14 day
[4] = 300 mg/kg, […], dose level Middle, time 28 day
[5] = 1000 mg/kg, 72 h, dose level High, time 3 day
[6] = 1000 mg/kg, […], dose level High, time 7 day
[7] = 1000 mg/kg, […], dose level High, time 14 day
[8] = 1000 mg/kg, […], dose level High, time 28 day

## C#C[C@]1(O)CC[C@H]2[C@@H]3CCC4=Cc5oncc5C[C@]4(C)[C@H]3CC[C@@]21C [DANAZOL]
[1]
  TERMINAL_BW: 238.4 g
  APTT: 22.7 s
  Bas: 0%
  Eos: 1%
  Fbg: 355.8 mg/dL
  Hb: 13.5 g/dL
  Ht: 40.3%
  Lym: 80%
  MCHC: 33.4%
  MCV: 62.4 fL
  Mono: 2.4%
  Neu: 15.8%
  PT: 16.5 s
  Plat: 115.8 x10_4/uL
  RBC: 645.6 x10_4/ul
  Ret: 6.6%
  WBC: 87.1 x10_2/uL
  KIDNEY_L: 1.1 g
  KIDNEY_R: 1.1 g
  KIDNEY_TOTAL: 2.2 g
  LIVER: 12.4 g
  ALP: 1638.6 IU/L
  ALT: 45.2 IU/L
  AST: 65.8 IU/L
  CRE: 0.2 mg/dL
  DBIL: 0 mg/dL
  GLC: 180.2 mg/dL
  IP: 7.9 mg/dL
  K: 4.5 meq/L
  LDH: 169.6 IU/L
  Na: 141.6 meq/L
  PL: 129.6 mg/dL
  RALB: 3.1 g/dL
  TBIL: 0.004 mg/dL
  TC: 50.2 mg/dL
  TG: 172.2 mg/dL
  TP: 5.7 g/dL
  gamma-GTP: 2 IU/L
[2]
  TERMINAL_BW: 263.9 g
  APTT: 25.7 s
  Bas: 0%
  Eos: 0.8%
  Fbg: 360 mg/dL
  Hb: 13.9 g/dL
  Ht: 41.1%
  Lym: 81.8%
  MCHC: 33.8%
  MCV: 61.8 fL
  Mono: 2%
  Neu: 14.8%
  PT: 16.2 s
  Plat: 127.5 x10_4/uL
  RBC: 666.4 x10_4/ul
  Ret: 5.3%
  WBC: 104.2 x10_2/uL
  KIDNEY_L: 1.2 g
  KIDNEY_R: 1.2 g
  KIDNEY_TOTAL: 2.4 g
  LIVER: 13.6 g
  ALP: 1469 IU/L
  ALT: 42.6 IU/L
  AST: 64 IU/L
  CRE: 0.2 mg/dL
  DBIL: 0 mg/dL
  GLC: 181.6 mg/dL
  IP: 6.5 mg/dL
  K: 4.3 meq/L
  LDH: 134.6 IU/L
  Na: 142.2 meq/L
  PL: 132.2 mg/dL
  RALB: 3.1 g/dL
  TBIL: 0.002 mg/dL
  TC: 49.4 mg/dL
  TG: 210.2 mg/dL
  TP: 5.8 g/dL
  gamma-GTP: 1.8 IU/L
[3]
  TERMINAL_BW: 303.4 g
  APTT: 26.4 s
  Bas: 0%
  Eos: 0.8%
  Fbg: 334.2 mg/dL
  Hb: 14.6 g/dL
  Ht: 41.2%
  Lym: 85.2%
  MCHC: 35.4%
  MCV: 58.8 fL
  Mono: 2.4%
  Neu: 10.8%
  PT: 17.3 s
  Plat: 124.6 x10_4/uL
  RBC: 701.4 x10_4/ul
  Ret: 2.8%
  WBC: 113.8 x10_2/uL
  KIDNEY_L: 1.3 g
  KIDNEY_R: 1.3 g
  KIDNEY_TOTAL: 2.6 g
  LIVER: 14.9 g
  ALP: 1443.4 IU/L
  ALT: 35.6 IU/L
  AST: 58 IU/L
  CRE: 0.2 mg/dL
  DBIL: 0 mg/dL
  GLC: 170 mg/dL
  IP: 6.8 mg/dL
  K: 4.3 meq/L
  LDH: 134.8 IU/L
  Na: 141.8 meq/L
  PL: 115 mg/dL
  RALB: 3.1 g/dL
  TBIL: 0 mg/dL
  TC: 35.6 mg/dL
  TG: 240.6 mg/dL
  TP: 6 g/dL
  gamma-GTP: 2.4 IU/L
[4]
  TERMINAL_BW: 343.4 g
  APTT: 26.1 s
  Bas: 0%
  Eos: 0.6%
  Fbg: 310.8 mg/dL
  Hb: 14.5 g/dL
  Ht: 42.2%
  Lym: 84.2%
  MCHC: 34.5%
  MCV: 54.1 fL
  Mono: 1.8%
  Neu: 12.4%
  PT: 17.9 s
  Plat: 108.2 x10_4/uL
  RBC: 779.4 x10_4/ul
  Ret: 2%
  WBC: 79.9 x10_2/uL
  KIDNEY_L: 1.4 g
  KIDNEY_R: 1.3 g
  KIDNEY_TOTAL: 2.7 g
  LIVER: 14.9 g
  ALP: 1201.6 IU/L
  ALT: 35.6 IU/L
  AST: 57.6 IU/L
  CRE: 0.2 mg/dL
  DBIL: 0 mg/dL
  GLC: 178 mg/dL
  IP: 5.8 mg/dL
  K: 4 meq/L
  LDH: 121.6 IU/L
  Na: 142.2 meq/L
  PL: 130.4 mg/dL
  RALB: 3.1 g/dL
  TBIL: 0.002 mg/dL
  TC: 41.4 mg/dL
  TG: 280.2 mg/dL
  TP: 6.2 g/dL
  gamma-GTP: 2.8 IU/L
[5]
  TERMINAL_BW: 232.8 g
  APTT: 23.9 s
  Bas: 0%
  Eos: 1%
  Fbg: 355.8 mg/dL
  Hb: 13.1 g/dL
  Ht: 39.4%
  Lym: 83%
  MCHC: 33.3%
  MCV: 63 fL
  Mono: 3%
  Neu: 12.2%
  PT: 16.6 s
  Plat: 122.2 x10_4/uL
  RBC: 626 x10_4/ul
  Ret: 5.3%
  WBC: 100.4 x10_2/uL
  KIDNEY_L: 1.1 g
  KIDNEY_R: 1.1 g
  KIDNEY_TOTAL: 2.2 g
  LIVER: 13.1 g
  ALP: 1658.2 IU/L
  ALT: 39.2 IU/L
  AST: 60.6 IU/L
  CRE: 0.2 mg/dL
  DBIL: 0 mg/dL
  GLC: 173.4 mg/dL
  IP: 7.6 mg/dL
  K: 4.5 meq/L
  LDH: 153.4 IU/L
  Na: 141 meq/L
  PL: 116.2 mg/dL
  RALB: 3.1 g/dL
  TBIL: 0 mg/dL
  TC: 47.2 mg/dL
  TG: 132.6 mg/dL
  TP: 5.8 g/dL
  gamma-GTP: 2 IU/L
[6]
  TERMINAL_BW: 261.4 g
  APTT: 25.7 s
  Bas: 0%
  Eos: 0.8%
  Fbg: 351.6 mg/dL
  Hb: 14 g/dL
  Ht: 41.5%
  Lym: 86.4%
  MCHC: 33.8%
  MCV: 60 fL
  Mono: 1.6%
  Neu: 10.4%
  PT: 16.7 s
  Plat: 143.9 x10_4/uL
  RBC: 693.2 x10_4/ul
  Ret: 4.9%
  WBC: 103.6 x10_2/uL
  KIDNEY_L: 1.1 g
  KIDNEY_R: 1.2 g
  KIDNEY_TOTAL: 2.3 g
  LIVER: 13.2 g
  ALP: 1593 IU/L
  ALT: 36.4 IU/L
  AST: 61.2 IU/L
  CRE: 0.1 mg/dL
  DBIL: 0 mg/dL
  GLC: 184 mg/dL
  IP: 7 mg/dL
  K: 4.3 meq/L
  LDH: 136.6 IU/L
  Na: 142.4 meq/L
  PL: 121 mg/dL
  RALB: 3.2 g/dL
  TBIL: 0 mg/dL
  TC: 44.2 mg/dL
  TG: 200.6 mg/dL
  TP: 5.8 g/dL
  gamma-GTP: 2.4 IU/L
[7]
  TERMINAL_BW: 289.1 g
  APTT: 28.9 s
  Bas: 0%
  Eos: 0.8%
  Fbg: 345.6 mg/dL
  Hb: 14.8 g/dL
  Ht: 42.1%
  Lym: 86.8%
  MCHC: 35.2%
  MCV: 57.3 fL
  Mono: 2.2%
  Neu: 9.6%
  PT: 17.1 s
  Plat: 119 x10_4/uL
  RBC: 734.6 x10_4/ul
  Ret: 2.4%
  WBC: 81.2 x10_2/uL
  KIDNEY_L: 1.3 g
  KIDNEY_R: 1.4 g
  KIDNEY_TOTAL: 2.7 g
  LIVER: 15 g
  ALP: 1541.2 IU/L
  ALT: 37.6 IU/L
  AST: 58.6 IU/L
  CRE: 0.2 mg/dL
  DBIL: 0 mg/dL
  GLC: 174.8 mg/dL
  IP: 7.2 mg/dL
  K: 4.3 meq/L
  LDH: 133.8 IU/L
  Na: 142.2 meq/L
  PL: 124.2 mg/dL
  RALB: 3.1 g/dL
  TBIL: 0 mg/dL
  TC: 38.6 mg/dL
  TG: 255.8 mg/dL
  TP: 6.2 g/dL
  gamma-GTP: 2.8 IU/L
[8]
  TERMINAL_BW: 372.5 g
  APTT: 27.7 s
  Bas: 0%
  Eos: 1.2%
  Fbg: 320.6 mg/dL
  Hb: 14.3 g/dL
  Ht: 41.9%
  Lym: 79.4%
  MCHC: 34.1%
  MCV: 56.1 fL
  Mono: 3%
  Neu: 15.8%
  PT: 18.2 s
  Plat: 112.3 x10_4/uL
  RBC: 749 x10_4/ul
  Ret: 2.2%
  WBC: 69.9 x10_2/uL
  KIDNEY_L: 1.5 g
  KIDNEY_R: 1.5 g
  KIDNEY_TOTAL: 3 g
  LIVER: 18 g
  ALP: 1028.8 IU/L
  ALT: 37.6 IU/L
  AST: 55.8 IU/L
  CRE: 0.2 mg/dL
  DBIL: 0 mg/dL
  GLC: 177.8 mg/dL
  IP: 6.6 mg/dL
  K: 4.2 meq/L
  LDH: 122.6 IU/L
  Na: 141.6 meq/L
  PL: 133.6 mg/dL
  RALB: 3.2 g/dL
  TBIL: 0 mg/dL
  TC: 41.4 mg/dL
  TG: 275.4 mg/dL
  TP: 6.4 g/dL
  gamma-GTP: 3.6 IU/L
